In one experiment the target is T1, lipoxygenase (Rattus norvegicus, UniProt P12527).
T1 construct: Polymorphonuclear leucocytes from rats (PMNL) were obtained from the peritoneal space in Wistar rats; endogenous in cells; host or cells: peritoneal polymorphonuclear leucocytes of Wistar rats (elicited with sodium caseinate)
T1 sequence (P12527 1-673): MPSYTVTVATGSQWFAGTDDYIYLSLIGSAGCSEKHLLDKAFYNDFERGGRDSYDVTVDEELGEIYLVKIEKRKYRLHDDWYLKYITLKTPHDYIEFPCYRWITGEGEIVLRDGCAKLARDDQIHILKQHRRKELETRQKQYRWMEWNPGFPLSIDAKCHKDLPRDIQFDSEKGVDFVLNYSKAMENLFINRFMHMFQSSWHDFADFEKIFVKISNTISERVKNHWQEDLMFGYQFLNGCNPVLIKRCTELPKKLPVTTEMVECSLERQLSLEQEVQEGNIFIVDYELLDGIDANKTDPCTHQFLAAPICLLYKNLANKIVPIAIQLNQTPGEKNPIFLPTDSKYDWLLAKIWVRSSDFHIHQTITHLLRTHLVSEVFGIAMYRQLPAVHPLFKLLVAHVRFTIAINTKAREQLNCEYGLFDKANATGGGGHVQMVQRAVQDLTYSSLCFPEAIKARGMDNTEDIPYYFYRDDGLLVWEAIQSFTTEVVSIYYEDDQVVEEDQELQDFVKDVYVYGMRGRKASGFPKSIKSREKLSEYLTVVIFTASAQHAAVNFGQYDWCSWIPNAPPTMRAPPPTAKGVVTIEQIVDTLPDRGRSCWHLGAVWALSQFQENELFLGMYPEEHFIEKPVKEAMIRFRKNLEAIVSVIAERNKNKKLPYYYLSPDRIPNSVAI
Nature of the experiment: LTB4 release from rat polymorphonuclear leucocytes (PMNL) after calcium ionophore A 23187, by HPLC (lipoxygenase inhibition). It counts as cell-based, rat (Wistar). The protocol: The release of LTB4 on polymorphonuclear granulocytes after addition of substances and calcium ionophor was determined by means of HPLC as a measure of the lipoxygenase inhibition.
The combined ether phases were washed with 4 ml of water (double distilled), dried while gassing with nitrogen and taken up in 80 μl of methanol.
20 μl of each of the samples thus prepared were applied to a pre-packed column (Nucleosil, type 7.5 C 18M 4×25 mm) and chromatographed at a flow rate of 1 ml/min (Kontron pump system 600), methanol, H2 O and acetic acid (75:25:0.01) being used as the mobile phase. Detection was at 280 nm (Uvicon 720 LC). The formation of the metabolite was quantified with the aid of the internal standard PG B2 as a quotient of the area integrals (Shimadzu C-R1B) of LTB4 to PGB2 and an inhibition was determined as a percentage of the controls.

The next experiment relates to leucocyte migration. Nature of the experiment: Inhibition of leucocyte migration, small sponge impregnated with active compound under the skin on the backs of rats. The class given is in vivo. Particulars: rat, local, 10 mg/rat, impregnated sponge under skin of back. From the text: The 1H-pyrido-[2,3-b][1,4]-thiazines according to the invention also have an in vivo action.
The action of a 1H-pyrido-[2,3-b][1,4]-thiazine after local administration by insertion of a small sponge impregnated with active compound under the skin on the backs of rats may be mentioned as examples.

pIC50: −log10 of the molar value.

Turning to `O=C1CCCC2=C1Sc1ncccc1N2`, the “Inhibition of leukotriene B4 biosynthesis, % inhibition” value at lipoxygenase (at 1·10^-5 (M/1), rat PMNL) is 42%.

Consider `CCOC(=O)C1=CNc2cccnc2S1` [Example 1, 3-Ethoxycarbonyl-1H-pyrido[2,3-b][1,4]-thiazine], for which, in the experiment on leucocyte migration, the “Inhibition of Leucocyte migration (control = 0%)” value is given as 50%. The pIC50 on lipoxygenase was 6.34.

`COC(=O)C1=CNc2cccnc2S1` [Example 2]: the pIC50 at lipoxygenase is 5.30. For the compound `CCCCOC(=O)C1=CNc2cccnc2S1` [Example 4], the pIC50 at lipoxygenase is 7.26. The same measure, in the same setting: for `CCOC(=O)C1=CN(CC#N)c2cccnc2S1` [Example 19] the value was 5.59.

One may read the pIC50 as the IC50 on a negative log10 scale, so that one unit is a factor of ten.

Source of the values: patent US4861878A, “1H-pyrido-(2,3-b) (1,4)-thiazines” (Bayer Aktiengesellschaft, priority 1985, dated 1989).
